Read-outs that look alike come from different tables or passages of the source.
Legend:
human GLP-1 receptor = biological target: T1, human GLP-1 receptor (Homo sapiens, UniProt P43220); assay: In vitro potency (AlphaScreen cAMP, membranes); assay type: biochemical
T1 construct: expressed in transfected cells; host or cells: BHK cells, clone FCW467-12A/KZ10-1 (parent line BHKTS13), further transfected with CRE luciferase
Procedure, shortened: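 AlphaScreen competition read-out (anti-cAMP acceptor beads vs biotinylated cAMP, 3 h room temperature) quantified cAMP made by human GLP-1 receptor membranes, 6 μg/well, from stably transfected BHK467-12A cells. Buffer pH 7.4 contained 1 mM ATP, 1 μM GTP, 0.5 mM IBMX and 0.1% BSA; cAMP standard curve included.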

[1] = system: Landrace Yorkshire Duroc (LYD) pigs; assay: Pharmacodynamic (PD) study in pigs, food intake; assay type: in vivo, pig; details: single s.c. dose 3.0 nmol/kg; for PD in pig, food intake (% of vehicle) for hours 0-24: 0-24 h; for PD in pig, food intake (% of vehicle) for hours 24-48: 24-48 h; for reduction in food intake (in words): versus vehicle
Procedure: The purpose of this experiment was to investigate the effect of a couple of Example compounds on food intake in pigs. This was done in a pharmacodynamic (PD) study as described below, in which food intake was measured from 1 to 4 days after administration of a single dose of the GLP-1 derivative, as compared to a vehicle-treated control group.
Female Landrace Yorkshire Duroc (LYD) pigs, approximately 3 months of age, weighing approximately 30-35 kg were used (n=3-4 per group). The animals were housed in a group for approximately 1 week during acclimatisation to the animal facilities. During the experimental period the animals were placed in individual pens at least 2 days before dosing and during the entire experiment for measurement of individual food intake. The animals were fed ad libitum with pig fodder (Svinefoder Danish Top) at all times both during the acclimatisation and the experimental period. Food intake was monitored on line by logging the weight of fodder every 15 minutes. The system used was Mpigwin (Ellegaard Systems, Faaborg, Denmark).
The phosphate buffer serves as vehicle. Animals are dosed with a single subcutaneous dose of the GLP-1 derivative or vehicle (dose volume 0.025 ml/kg) on the morning of day 1, and food intake is measured for 1 day after dosing. On the last day of each study, 1-4 days after dosing, a blood sample for measurement of plasma exposure of the GLP-1 derivative is taken from the heart in anaesthetised animals. The animals are thereafter euthanised with an intra-cardial overdose of pentobarbitone.
Food intake is calculated as mean±SEM food intake in 24 h intervals (0-24 h, 24-48 h, and 48-72 h). In Table 6 below the food intake is indicated as percentage of the food intake of the vehicle group in the same time interval (dosage 3.0 nmol/kg).
Statistical comparisons of the food intake in the 24 h intervals in the vehicle vs. GLP-1 derivative group are done using two-way-ANOVA repeated measures, followed by Bonferroni post-test.

[2] = Pharmacokinetic (PK) study in rat; details: male, Sprague Dawley, in vivo, iv, 6 nmol/kg
Procedure: (§1) The purpose of this Example is to investigate half-life in vivo in rat.
(§2) In vivo pharmacokinetic studies in rats were performed with the GLP-1 derivatives of a number of the Example compounds, as described in the following.
(§3) Male Sprague Dawley rats of same age with a body weight of approximately 400 g were obtained from Taconic (Denmark) and assigned to the treatments by simple randomisation on body weight, approximately 4 rats per group.
(§4) The GLP-1 derivatives (approximately 6 nmol/ml) were dissolved in 50 mM sodium phosphate, 145 mM sodium chloride, 0.05% tween 80, pH 7.4. Intravenous injections (1.0 ml/kg) of the compounds were given with a syringe in the tail vein of conscious rats. Blood was sampled from vena sublingualis for 5 days post dosing. Blood samples (200 μl) were collected in EDTA buffer (8 mM) and then centrifuged at 4° C. and 10000 G for 5 minutes. Plasma samples were kept at −20° C. until analyzed for plasma concentration of the respective GLP-1 compound.
(§5) The donor beads were coated with streptavidin, while acceptor beads were conjugated with a monoclonal antibody recognising a mid-/C-terminal epitope of the peptide. Another monoclonal antibody, specific for the N-terminus, was biotinylated. The three reactants were combined with the analyte and formed a two-sited immuno-complex. Illumination of the complex released singlet oxygen atoms from the donor beads, which were channeled into the acceptor beads and triggered chemiluminescence which was measured in an Envision plate reader. The amount of light was proportional to the concentration of the compound.
(§6) Plasma concentration-time profiles were analyzed using Phoenix WinNonLin ver. 6.2, Pharsight Inc., Mountain View, Calif., USA), and the half-life (T1/2) calculated using individual plasma concentration-time profiles from each animal.

[3] = Pharmacokinetic (PK) study in minipig; details: male, Göttingen, in vivo, iv
in vivo = details: male, Sprague Dawley, rat, iv
Procedure: as §1, §2, §3, §4, §5, §6

T1 sequence (P43220 24-463): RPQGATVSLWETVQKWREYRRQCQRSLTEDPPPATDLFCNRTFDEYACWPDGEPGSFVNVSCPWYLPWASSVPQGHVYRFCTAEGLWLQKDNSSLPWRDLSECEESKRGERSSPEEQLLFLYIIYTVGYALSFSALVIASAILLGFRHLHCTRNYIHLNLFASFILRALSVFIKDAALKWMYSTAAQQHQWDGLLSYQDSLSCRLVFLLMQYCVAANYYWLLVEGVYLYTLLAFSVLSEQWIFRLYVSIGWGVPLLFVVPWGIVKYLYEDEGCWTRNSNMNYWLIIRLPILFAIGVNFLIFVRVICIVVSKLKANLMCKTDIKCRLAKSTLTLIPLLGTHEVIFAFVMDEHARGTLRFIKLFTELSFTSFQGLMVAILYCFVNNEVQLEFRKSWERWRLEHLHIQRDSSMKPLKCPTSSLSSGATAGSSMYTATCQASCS

| EC50 (human GLP-1 receptor; cAMP formation in membranes from BHK467-12A cells expressing human GLP-1 receptor, read-out: In vitro potency (AlphaScreen) EC50) [nM] | half-life (in vivo) [min] | SMILES | EC50 (human GLP-1 receptor) [nM] | PD in pig, food intake (% of vehicle) for hours 0-24 [1] | PD in pig, food intake (% of vehicle) for hours 24-48 [1] | reduction in food intake (in words) [1] | half-life [2] [min] | half-life [3] [min] | PD in pig, food intake (% of vehicle) for hours 48-72 ([1]; 48-72 h) |
| --- | --- | --- | --- | --- | --- | --- | --- | --- | --- |
|  |  | CC[C@H](C)[C@H](NC(=O)[C@H](Cc1ccccc1)NC(=O)[C@H](CCC(=O)O)NC(=O)[C@H](CCCCNC(=O)[C@@H](N)CCCCNC(=O)[C@@H](N)CCCCNC(=O)CC[C@H](NC(=O)CCCCCCCCCCCOc1ccc(C(=O)O)cc1)C(=O)O)NC(=O)[C@H](C)NC(=O)[C@H](C)NC(=O)[C@H](CCC(N)=O)NC(=O)CNC(=O)[C@H](CCC(=O)O)NC(=O)[C@H](CC(C)C)NC(=O)[C@H](Cc1ccc(O)cc1)NC(=O)[C@H](CO)NC(=O)[C@H](CO)NC(=O)[C@@H](NC(=O)[C@H](CC(=O)O)NC(=O)[C@H](CO)NC(=O)[C@@H](NC(=O)[C@H](Cc1ccccc1)NC(=O)[C@@H](NC(=O)CNC(=O)[C@H](CCC(=O)O)NC(=O)C(C)(C)NC(=O)[C@@H](N)Cc1c[nH]cn1)[C@@H](C)O)[C@@H](C)O)C(C)C)C(=O)N[C@@H](C)C(=O)N[C@@H](Cc1c[nH]c2ccccc12)C(=O)N[C@@H](CC(C)C)C(=O)N[C@H](C(=O)N[C@@H](CCCNC(=N)N)C(=O)NCC(=O)N[C@@H](CCCNC(=N)N)C(=O)N[C@@H](CCCCNC(=O)[C@@H](N)CCCCNC(=O)[C@@H](N)CCCCNC(=O)CC[C@H](NC(=O)CCCCCCCCCCCOc1ccc(C(=O)O)cc1)C(=O)O)C(=O)O)C(C)C [Example 7, N^ε26-[(2S)-2-amino-6-[[(2S)-2-amino-6-[[(4S)-4-carboxy-4-[12-(4-carboxyphenoxy)dodecanoylamino]butanoyl]amino]hexanoyl]amino]hexanoyl], N^ε37-[(2S)-2-amino-6-[[(2S)-2-amino-6-[[(4S)-4-carboxy-4-[12-(4-carboxyphenoxy)dodecanoylamino]butanoyl]amino]hexanoyl]amino]hexanoyl]-[Aib^8,Arg^34,Lys^37]-GLP-1-(7-37)-peptide] | 0.136 | 14 % of vehicle | 18 % of vehicle | very nice reduction in food intake | 1020 | 4140 |  |
|  |  | CC[C@H](C)[C@H](NC(=O)[C@H](Cc1ccccc1)NC(=O)[C@H](CCC(=O)O)NC(=O)[C@H](CCCCNC(=O)[C@@H](N)CCCCNC(=O)[C@@H](N)CCCCNC(=O)CC[C@H](NC(=O)CCCCCCCNC(=O)CCCCCCCCCOc1ccc(C(=O)O)cc1)C(=O)O)NC(=O)[C@H](C)NC(=O)[C@H](C)NC(=O)[C@H](CCC(N)=O)NC(=O)CNC(=O)[C@H](CCC(=O)O)NC(=O)[C@H](CC(C)C)NC(=O)[C@H](Cc1ccc(O)cc1)NC(=O)[C@H](CO)NC(=O)[C@H](CO)NC(=O)[C@@H](NC(=O)[C@H](CC(=O)O)NC(=O)[C@H](CO)NC(=O)[C@@H](NC(=O)[C@H](Cc1ccccc1)NC(=O)[C@@H](NC(=O)CNC(=O)[C@H](CCC(=O)O)NC(=O)C(C)(C)NC(=O)[C@@H](N)Cc1c[nH]cn1)[C@@H](C)O)[C@@H](C)O)C(C)C)C(=O)N[C@@H](C)C(=O)N[C@@H](Cc1c[nH]c2ccccc12)C(=O)N[C@@H](CC(C)C)C(=O)N[C@H](C(=O)N[C@@H](CCCNC(=N)N)C(=O)NCC(=O)N[C@@H](CCCNC(=N)N)C(=O)N[C@@H](CCCCNC(=O)[C@@H](N)CCCCNC(=O)[C@@H](N)CCCCNC(=O)CC[C@H](NC(=O)CCCCCCCNC(=O)CCCCCCCCCOc1ccc(C(=O)O)cc1)C(=O)O)C(=O)O)C(C)C [Example 26, N^ε26-[(2S)-2-amino-6-[[(2S)-2-amino-6-[[(4S)-4-carboxy-4-[8-[10-(4-carboxyphenoxy)decanoylamino]octanoylamino]butanoyl]amino]hexanoyl]amino]hexanoyl], N^ε37-[(2S)-2-amino-6-[[(2S)-2-amino-6-[[(4S)-4-carboxy-4-[8-[10-(4-carboxyphenoxy)decanoylamino]octanoylamino]butanoyl]amino]hexanoyl]amino]hexanoyl]-[Aib^8,Arg^34,Lys^37]-GLP-1-(7-37)-peptide] | 0.135 | 10 % of vehicle | 26 % of vehicle | very nice reduction in food intake | 960 | 780 | 52 % of vehicle |
| 3.69 | 1260 | CC[C@H](C)[C@H](NC(=O)[C@H](Cc1ccccc1)NC(=O)[C@H](CCC(=O)O)NC(=O)[C@H](CCCCNC(=O)[C@@H](N)CCCCNC(=O)[C@@H](N)CCCCNC(=O)CC[C@H](NC(=O)CCCCCCCCCCCCCCCCC(=O)O)C(=O)O)NC(=O)[C@H](C)NC(=O)[C@H](C)NC(=O)[C@H](CCC(N)=O)NC(=O)CNC(=O)[C@H](CCC(=O)O)NC(=O)[C@H](CC(C)C)NC(=O)[C@H](Cc1ccc(O)cc1)NC(=O)[C@H](CO)NC(=O)[C@H](CO)NC(=O)[C@@H](NC(=O)[C@H](CC(=O)O)NC(=O)[C@H](CO)NC(=O)[C@@H](NC(=O)[C@H](Cc1ccccc1)NC(=O)[C@@H](NC(=O)CNC(=O)[C@H](CCC(=O)O)NC(=O)C(C)(C)NC(=O)[C@@H](N)Cc1c[nH]cn1)[C@@H](C)O)[C@@H](C)O)C(C)C)C(=O)N[C@@H](C)C(=O)N[C@@H](Cc1c[nH]c2ccccc12)C(=O)N[C@@H](CC(C)C)C(=O)N[C@H](C(=O)N[C@@H](CCCNC(=N)N)C(=O)NCC(=O)N[C@@H](CCCNC(=N)N)C(=O)N[C@@H](CCCCNC(=O)[C@@H](N)CCCCNC(=O)[C@@H](N)CCCCNC(=O)CC[C@H](NC(=O)CCCCCCCCCCCCCCCCC(=O)O)C(=O)O)C(=O)O)C(C)C [Example 27, N^ε26-[(2S)-2-amino-6-[[(2S)-2-amino-6-[[(4S)-4-carboxy-4-(17-carboxyheptadecanoylamino)butanoyl]amino]hexanoyl]amino]hexanoyl], N^ε37-[(2S)-2-amino-6-[[(2S)-2-amino-6-[[(4S)-4-carboxy-4-(17-carboxyheptadecanoylamino)butanoyl]amino]hexanoyl]amino]hexanoyl]-[Aib^8,Arg^34,Lys^37]-GLP-1-(7-37)-peptide] |  |  |  |  |  |  |  |
